Assay results reported in ChEMBL document CHEMBL1201862, “PubChem BioAssay data set” (2004).
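Compound exposure: 48 hours, 5 concentrations, 96-well plates. GI50: concentration for 50% inhibition of growth.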 Active and inactive are the calls of the source. No stated cut-off is given here; in the data, active = GI50 up to about 1.1 µM and inactive = higher.

Tests used:
Assay in all cases: NCI tumour cell line growth inhibition, 48 h
[1] = tested on: 786-0
[2] = tested on: A549
[3] = tested on: ACHN
[4] = tested on: BT-549
[5] = tested on: CAKI-1
[6] = tested on: CCRF-CEM
[7] = tested on: COLO 205
[8] = tested on: DU-145
[9] = tested on: EKVX
[10] = tested on: HCC 2998
[11] = tested on: HCT-116
[12] = tested on: HCT-15
[13] = tested on: HL-60
[14] = tested on: HOP-62
[15] = tested on: HT-29
[16] = tested on: Hs-578T
[17] = tested on: IGROV-1
[18] = tested on: K562
[19] = tested on: KM12
[20] = tested on: LOX IMVI
[21] = tested on: M14
[22] = tested on: MCF7
[23] = tested on: MDA-MB-231
[24] = tested on: MDA-N
[25] = tested on: MOLT-4
[26] = tested on: Malme-3M
[27] = tested on: NCI-H226
[28] = tested on: NCI-H23
[29] = tested on: NCI-H460
[30] = tested on: NCI-H522
[31] = tested on: NCI/ADR-RES
[32] = tested on: OVCAR-4
[33] = tested on: OVCAR-5
[34] = tested on: OVCAR-8
[35] = tested on: PC-3
[36] = tested on: RPMI-8226
[37] = tested on: RXF 393
[38] = tested on: SF-268
[39] = tested on: SF-295
[40] = tested on: SF-539
[41] = tested on: SK-MEL-28
[42] = tested on: SK-MEL-2
[43] = tested on: SK-MEL-5
[44] = tested on: SK-OV-3
[45] = tested on: SN12C
[46] = tested on: SNB-19
[47] = tested on: SNB-75
[48] = tested on: SR
[49] = tested on: SW-620
[50] = tested on: T47D
[51] = tested on: TK-10
[52] = tested on: U-251
[53] = tested on: UACC-257
[54] = tested on: UACC-62
[55] = tested on: UO-31

Compound: CC1(C)OC(C(C)(C)O)C(C(C)(C)O)O1 (stereo not given)
- GI50 [1]: > 100 µM (inactive)
- GI50 [2]: > 100 µM (inactive)
- GI50 [3]: > 100 µM (inactive)
- GI50 [4]: > 100 µM (inactive)
- GI50 [5]: > 100 µM (inactive)
- GI50 [6]: > 100 µM (inactive)
- GI50 [7]: > 100 µM (inactive)
- GI50 [8]: > 100 µM (inactive)
- GI50 [9]: > 100 µM (inactive)
- GI50 [10]: > 100 µM (inactive)
- GI50 [11]: > 100 µM (inactive)
- GI50 [12]: > 100 µM
- GI50 [13]: > 100 µM (inactive)
- GI50 [14]: > 100 µM (inactive)
- GI50 [15]: > 100 µM (inactive)
- GI50 [16]: > 100 µM (inactive)
- GI50 [17]: > 100 µM (inactive)
- GI50 [18]: > 100 µM (inactive)
- GI50 [19]: > 100 µM (inactive)
- GI50 [20]: > 100 µM (inactive)
- GI50 [21]: > 100 µM (inactive)
- GI50 [22]: > 100 µM (inactive)
- GI50 [23]: > 100 µM (inactive)
- GI50 [24]: > 100 µM (inactive)
- GI50 [25]: > 100 µM (inactive)
- GI50 [26]: > 100 µM (inactive)
- GI50 [27]: > 100 µM (inactive)
- GI50 [28]: > 100 µM (inactive)
- GI50 [29]: > 100 µM (inactive)
- GI50 [30]: > 100 µM (inactive)
- GI50 [31]: > 100 µM (inactive)
- GI50 [32]: > 100 µM (inactive)
- GI50 [33]: > 100 µM (inactive)
- GI50 [34]: > 100 µM (inactive)
- GI50 [35]: > 100 µM (inactive)
- GI50 [36]: > 100 µM (inactive)
- GI50 [37]: 39 µM (inactive)
- GI50 [38]: > 100 µM (inactive)
- GI50 [39]: > 100 µM (inactive)
- GI50 [40]: > 100 µM (inactive)
- GI50 [41]: > 100 µM (inactive)
- GI50 [42]: > 100 µM (inactive)
- GI50 [43]: > 100 µM (inactive)
- GI50 [44]: > 100 µM (inactive)
- GI50 [45]: > 100 µM (inactive)
- GI50 [46]: > 100 µM (inactive)
- GI50 [47]: > 100 µM (inactive)
- GI50 [48]: > 100 µM (inactive)
- GI50 [49]: > 100 µM (inactive)
- GI50 [50]: > 100 µM (inactive)
- GI50 [51]: > 100 µM (inactive)
- GI50 [52]: > 100 µM (inactive)
- GI50 [53]: > 100 µM (inactive)
- GI50 [54]: > 100 µM (inactive)
- GI50 [55]: > 100 µM (inactive)
